Laboratory results taken from patent US8809336B2, “Ortho-condensed pyridine and pyrimidine derivatives (e.g., purines) as protein kinases inhibitors” (Astex Therapeutics Limited, priority 2004, dated 2014).
Like-named read-outs stand apart in the source and are kept apart here.

Key:
PKB-PIF fusion protein = molecular target: T1, PKB-PIF fusion protein (Homo sapiens, UniProt P31751); assay: Measurement of PKB kinase inhibitory activity (IC50), 33P-ATP phosphocellulose filter assay; type: biochemical
T1 construct: PIF (fusion partner); made in house
Procedure: The inhibition of protein kinase B (PKB) activity by compounds can be determined essentially as described by Andjelkovic et al. (Mol. Cell. Biol. 19, 5061-5072 (1999)) but using a fusion protein described as PKB-PIF and described in full by Yang et al (Nature Structural Biology 9, 940-944 (2002)). […] A final concentration of 0.6 nM enzyme is used in a buffer that includes 20 mM MOPS pH 7.2, 30 μM ATP/γ^33P-ATP and 25 μM substrate.
Compounds are added in DMSO solution to a final DMSO concentration of 2.5%. The reaction is allowed to proceed for 20 minutes before addition of excess orthophosphoric acid to quench activity. The reaction mixture is transferred to a phosphocellulose filter plate where the peptide binds and the unused ATP is washed away. After washing, scintillant is added and the incorporated activity measured by scintillation counting.
The % inhibition of the PKB activity is calculated and plotted in order to determine the concentration of test compound required to inhibit 50% of the PKB activity (IC50).

PKA catalytic domain = molecular target: T2, PKA catalytic domain (Homo sapiens, UniProt P17612); assay: Measurement of PKA kinase inhibitory activity (IC50), 33P-ATP filter plate assay; type: biochemical
T2 construct: using the PKA catalytic domain from Upstate Biotechnology (#14-440); purchased Upstate Biotechnology 14-440
Procedure: A final concentration of 1 nM enzyme is used in a buffer that includes 20 mM MOPS pH 7.2, 40 μM ATP/γ^33P-ATP and […] substrate. Compounds are added in dimethylsulphoxide (DMSO) solution to a final DMSO concentration of 2.5%. The reaction is allowed to proceed for 20 minutes before addition of excess orthophosphoric acid to quench activity. Unincorporated γ^33P-ATP is then separated from phosphorylated proteins on a Millipore MAPH filter plate. The plates are washed, scintillant is added and the plates are then subjected to counting on a Packard Topcount.

[1] = 0.6 nM enzyme, 30 μM ATP, 25 μM AKTide-2T substrate, 20 minutes, read-out: IC50, inhibition of PKB activity
[2] = 1 nM enzyme, 40 μM ATP, 20 minutes, read-out: IC50, inhibition of PKA activity

T1 sequence (P31751 with tags, fused parts or gaps limits assumed): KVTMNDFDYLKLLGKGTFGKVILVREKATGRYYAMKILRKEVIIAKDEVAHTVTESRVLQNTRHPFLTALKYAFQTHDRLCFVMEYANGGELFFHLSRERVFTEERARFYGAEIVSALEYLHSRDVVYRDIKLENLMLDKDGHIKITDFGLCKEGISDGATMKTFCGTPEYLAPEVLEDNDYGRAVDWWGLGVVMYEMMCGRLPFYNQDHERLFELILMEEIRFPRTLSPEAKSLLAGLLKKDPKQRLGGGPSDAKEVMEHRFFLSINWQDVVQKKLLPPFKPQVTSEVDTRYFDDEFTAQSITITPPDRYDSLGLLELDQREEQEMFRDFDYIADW

Structure (SMILES) | IC50 (PKB-PIF fusion protein; [1]) [µM] | IC50 (PKA catalytic domain; [2]) [µM] | IC50 (PKB-PIF fusion protein) [µM] | IC50 (PKA catalytic domain) [µM]
NC1CCN(c2ccnc3[nH]ccc23)CC1 [Example 13, 1-(1H-Pyrrolo[2,3-b]pyridin-4-yl)-piperidin-4-ylamine] | < 10 | < 10 | – | –
NCC1(c2ccc(Cl)cc2)CCN(c2ncnc3[nH]ccc23)CC1 [Example 14, C-[4-(4-Chloro-phenyl)-1-(7H-pyrrolo[2,3-d]pyrimidin-4-yl)-piperidin-4-yl]-methylamine] | < 10 | < 10 | – | –
NC1(Cc2ccc(Cl)cc2)CCN(c2ncnc3[nH]cnc23)CC1 [Example 18, 4-(4-Chlorobenzyl)-1-(9H-purin-6-yl)piperidin-4-yl amine] | < 10 | < 10 | – | –
NCC1(Cc2ccc(Cl)cc2)CCN(c2ncnc3[nH]ccc23)CC1 [Example 19, C-[4-(4-Chlorobenzyl)-1-(7H-pyrrolo[2,3-d]pyrimidin-4-yl)piperidin-4-yl]methylamine] | < 10 | < 10 | – | –
NCC1(c2ccc(Cl)cc2)CCN(c2ncnc3[nH]c(=O)[nH]c23)CC1 [Example 20, 6-[4-Aminomethyl-4-(4-chlorophenyl)piperidin-1-yl]-7,9-dihydropurin-8-one] | < 10 | < 10 | – | –
NC1(c2ccc(Cl)cc2)CCN(c2ncnc3[nH]ccc23)CC1 [Example 25, 4-(4-Chlorophenyl)-1-(7H-pyrrolo[2,3-d]pyrimidin-4-yl)piperidin-4-ylamine] | – | – | < 10 | < 10
NCC1(c2cccc(Cl)c2)CCN(c2ncnc3[nH]ccc23)CC1 [Example 26, C-[4-(3-Chlorophenyl)-1-(7H-pyrrolo[2,3-d]pyrimidin-4-yl)piperidin-4-yl]methylamine] | < 10 | < 10 | – | –
CNCC1(c2ccc(Cl)cc2)CCN(c2ncnc3[nH]ccc23)CC1 [Example 42, [4-(4-Chloro-phenyl)-1-(7H-pyrrolo[2,3-d]pyrimidin-4-yl)-piperidin-4-ylmethyl]-methyl-amine] | – | – | < 10 | < 10

Continued, in another order:

IC50 (PKB-PIF fusion protein; [1]) [µM] | IC50 (PKA catalytic domain; [2]) [µM] | Structure (SMILES) | IC50 (PKB-PIF fusion protein) [µM] | IC50 (PKA catalytic domain) [µM]
< 10 | < 10 | NCC1(c2ccc(Cl)c(Cl)c2)CCN(c2ncnc3[nH]ccc23)CC1 [Example 28, C-[4-(3,4-Dichlorophenyl)-1-(7H-pyrrolo[2,3-d]pyrimidin-4-yl)piperidin-4-yl]methylamine] | – | –
< 10 | < 10 | NCC1(c2ccc(OC(F)(F)F)cc2)CCN(c2ncnc3[nH]cnc23)CC1 [Example 31, C-[1-(9H-Purin-6-yl)-4-(4-trifluoromethoxyphenyl)piperidin-4-yl]methylamine] | – | –
< 10 | < 10 | NCC1(c2ccc(C(F)(F)F)cc2)CCN(c2ncnc3[nH]ccc23)CC1 [Example 32, C-[1-(7H-Pyrrolo[2,3-d]pyrimidin-4-yl)-4-(4-trifluoromethylphenyl)piperidin-4-yl]methylamine] | – | –
< 10 | < 10 | COc1ccc(C2(CN)CCN(c3ncnc4[nH]ccc34)CC2)cc1 [Example 38, C-[4-(4-Methoxyphenyl)-1-(7H-pyrrolo[2,3-d]pyrimidin-4-yl)piperidin-4-yl]methylamine] | – | –
< 10 | < 10 | NCC1(c2ccc(OCc3ccccc3)cc2)CCN(c2ncnc3[nH]ccc23)CC1 [Example 40, C-[4-(4-Benzyloxyphenyl)-1-(7H-pyrrolo[2,3-d]pyrimidin-4-yl)piperidin-4-yl]methylamine] | – | –
< 10 | < 10 | CN(C)C1(Cc2ccc(Cl)cc2)CCN(c2ncnc3[nH]ccc23)CC1 [Example 44, [4-(4-Chlorobenzyl)-1-(7H-pyrrolo[2,3-d]pyrimidin-4-yl)-piperidin-4-yl]-dimethylamine] | – | –
